Assay results reported in PMC8428568, “Discovery of re-purposed drugs that slow SARS-CoV-2 replication in human cells” (PLoS Pathogens, 2021).
Counter-ions that a name gives are not always drawn. Like-named read-outs stand apart in the source and are kept apart here.

Tests used:
[1] = test system: SARS-CoV-2-ΔOrf7a-NLuc virus; experiment: microbe, parasite or virus in culture; type: cell-based; details: for activity at 10 µM: Severe acute respiratory syndrome coronavirus 2, Vero, 72 h, read-out: Mean relative luminescence (n=4)
[2] = test system: SARS-CoV-2-ΔOrf7a-NLuc virus; experiment: microbe, parasite or virus in culture; type: cell-based; details: for Mean relative luminescence (n=4): HUH7 screen
recombinant NLuc = type: biochemical; details: for Relative Recombinant NLUC: recombinant NLuc activity relative to DMSO; for Reads Counts per second (read 1) / Reads Counts per second (read 4) / Reads Counts per second (read 2) / Reads Counts per second (read 3): recombinant NLuc; for Reads Counts per second (read 1): first read column; for Reads Counts per second (read 4): fourth read column; for Reads Counts per second (read 3): third read column
HUH7 cells = details: for PrestoBlue relative viability: HUH7 screen; for toxic effects on cells: HUH7 cells screen
[3] = Vero screen, relative luminescence
[4] = 1 = untreated, 0 = total inhibition
[5] = Vero cells, 10 μM, 1 = DMSO-treated infected cells

SMILES | % activity in Vero 100PFU screen [1] | Mean relative luminescence (n=4) [1, 3] | Mean relative luminescence (n=4) [1, 4] | Mean relative luminescence (n=4) [2] | Relative Recombinant NLUC (recombinant NLuc) | Reads Counts per second (read 1) (recombinant NLuc) | Reads Counts per second (read 4) (recombinant NLuc) | Reads Counts per second (read 2) (recombinant NLuc) | Reads Counts per second (read 3) (recombinant NLuc) | PrestoBlue relative viability (Vero cells; [5]) | PrestoBlue relative viability (Vero cells; Vero screen) | PrestoBlue relative viability (HUH7 cells) | activity at 10 µM [1, 4] | effect on virus replication [1] | effect on virus replication [2] | toxic effects on cells (HUH7 cells)
COC(=O)C1=C(C)NC(C)=C(C(=O)O[C@@H]2CCCN(Cc3ccccc3)C2)[C@@H]1c1cccc([N+](=O)[O-])c1.Cl (racemic) [Benidipine HCl] | 1.81% | 0.003673 | 0.003673 | 0.003821 | 0.1313 | 50508 Counts per second | 49177 Counts per second | 49563 Counts per second | 49185 Counts per second | 0.8086 | 0.8086 | 0.6609 |  |  |  | 
CCCCc1oc2ccccc2c1C(=O)c1cc(I)c(OCCN(CC)CC)c(I)c1 [Amiodarone HCl] |  | 0.03182 |  | 0.03404 | 0.9671 | 364410 Counts per second | 366409 Counts per second | 365102 Counts per second | 365644 Counts per second | 0.8378 | 0.8378 | 0.9633 | 3.18% |  |  | 
CCOC(=O)C1=C(COCCN)NC(C)=C(C(=O)OC)C1c1ccccc1Cl (stereo not shown) [Amlodipine Besylate] |  | 0.124 |  | 0.03381 |  |  |  |  |  | 1.385 | 1.385 | 0.6859 | 12.4% |  |  | 
O=C1CCc2ccc(OCCCCN3CCN(c4cccc(Cl)c4Cl)CC3)cc2N1 [Aripiprazole] |  | 0.1007 |  | 0.008694 |  |  |  |  |  | 0.6278 | 0.6278 | 0.7416 | 10.1% |  |  | 
COc1nc2ccc(Br)cc2cc1[C@@H](c1ccccc1)[C@@](O)(CCN(C)C)c1cccc2ccccc12.O=C(O)/C=C/C(=O)O [Bedaquiline fumarate] | 3.58% | 0.01053 | 0.01053 | 0.1084 | 0.9227 | 351974 Counts per second | 338630 Counts per second | 352561 Counts per second | 351293 Counts per second | 1.113 | 1.113 | 0.5224 |  |  |  | 
Cl.Cl.Fc1ccc(C(c2ccc(F)cc2)N2CCN(C/C=C/c3ccccc3)CC2)cc1 [Flunarizine 2HCl] |  | 0.1133 | 0.1133 | 0.1091 |  |  |  |  |  | 2.629 | 2.629 | 0.9689 |  |  |  | 
COC(=O)C[C@](O)(CCCC(C)(C)O)C(=O)O[C@@H]1C(OC)=C[C@]23CCCN2CCc2cc4c(cc2[C@H]13)OCO4 [Homoharringtonine] |  | 0.01441 |  | 0.0133 |  |  |  |  |  | 0.5068 | 0.5068 | 0.6794 | 1.44% |  |  | 
Cc1cccc(C)c1OCC(=O)N[C@@H](Cc1ccccc1)[C@@H](O)C[C@H](Cc1ccccc1)NC(=O)[C@H](C(C)C)N1CCCNC1=O [Lopinavir] |  |  |  |  |  |  |  |  |  |  |  |  |  | failed to halt replication of SARS-CoV-2 | failed to halt replication of SARS-CoV-2 | 
Cc1ccc(NC(=O)c2ccc(CN3CCN(C)CC3)cc2)cc1Nc1nc(-c2cccnc2)cs1 [Masitinib (AB1010), Masitinib] |  | 0.1339 |  | 0.03917 |  |  |  |  |  | 1.308 | 1.308 | 0.7156 | 13.4% |  |  | 
Cl.Fc1ccc([C@@H]2CCNC[C@H]2COc2ccc3c(c2)OCO3)cc1 [Paroxetine HCl] | 12% |  | 0.09097 |  | 0.9732 | 360169 Counts per second | 368856 Counts per second |  | 369849 Counts per second | 1.088 |  |  |  |  |  | 
CC[C@@H]([C@H](C)O)n1ncn(-c2ccc(N3CCN(c4ccc(OC[C@@H]5CO[C@@](Cn6cncn6)(c6ccc(F)cc6F)C5)cc4)CC3)cc2)c1=O [Posaconazole] | 6% |  |  |  | 0.8565 | 325406 Counts per second | 315077 Counts per second |  | 324458 Counts per second | 0.7676 |  |  | 5.17% |  |  | 
CC(C)(Sc1cc(C(C)(C)C)c(O)c(C(C)(C)C)c1)Sc1cc(C(C)(C)C)c(O)c(C(C)(C)C)c1 [Probucol] | 5% |  |  |  | 0.9023 | 337686 Counts per second | 339611 Counts per second |  | 341300 Counts per second | 0.7536 |  |  | 2.23% |  |  | 
CC(C)c1nc(CN(C)C(=O)N[C@H](C(=O)N[C@@H](Cc2ccccc2)C[C@H](O)[C@H](Cc2ccccc2)NC(=O)OCc2cncs2)C(C)C)cs1 [Ritonavir] |  |  |  |  |  |  |  |  |  |  |  |  |  | failed to halt replication of SARS-CoV-2 | failed to halt replication of SARS-CoV-2 | 
CC[C@@H](C(=O)[C@@H](C)[C@@H](O)[C@H](C)[C@@H]1O[C@@H]([C@@H](CC)C(=O)O)CC[C@@H]1C)[C@H]1O[C@]2(C=C[C@@H](O)[C@]3(CC[C@@](C)([C@H]4CC[C@](O)(CC)[C@H](C)O4)O3)O2)[C@H](C)C[C@@H]1C [Salinomycin] | 3.75% |  |  |  | 0.9779 | 365050 Counts per second | 367850 Counts per second |  | 373342 Counts per second | 0.6121 |  |  | 1.89% |  |  | 
CSc1nc2cc(Cl)c(Oc3cccc(Cl)c3Cl)cc2[nH]1 [Triclabendazole] | 12% |  |  |  | 0.8923 | 335937 Counts per second | 339544 Counts per second |  | 336143 Counts per second | 0.62 |  |  | 9.74% |  |  | 
CN1CCN(CCCN2c3ccccc3Sc3ccc(C(F)(F)F)cc32)CC1.Cl.Cl [Trifluoperazine 2HCl] | 7% |  | 0.05678 |  | 0.9397 | 358281 Counts per second | 360671 Counts per second |  | 348422 Counts per second | 0.6995 |  |  |  |  |  | 
Br.Cc1ccc(Sc2ccccc2N2CCNCC2)c(C)c1 [Vortioxetine (Lu AA21004) HBr] | 1.39% |  | 0.007391 |  | 0.7479 | 280784 Counts per second | 284019 Counts per second |  | 284246 Counts per second | 0.509 |  |  |  |  |  | 
Cc1ccc(Sc2ccccc2N2CCNCC2)c(C)c1 [Vortioxetine] | 6% |  |  |  | 0.8732 | 326546 Counts per second | 332965 Counts per second |  | 329264 Counts per second | 0.6088 |  |  | 4.21% |  |  | 
CC[C@H]1OC(=O)[C@H](C)[C@@H](O[C@H]2C[C@@](C)(OC)[C@@H](O)[C@H](C)O2)[C@H](C)[C@@H](O[C@@H]2O[C@H](C)C[C@H](N(C)C)[C@H]2O)[C@](C)(O)C[C@@H](C)CN(C)[C@H](C)[C@@H](O)[C@]1(C)O [azithromycin] |  |  |  |  |  |  |  |  |  |  |  |  |  |  | did show some effects | toxic effects on cells
C[C@@H]1C[C@H]2[C@@H]3CCC4=CC(=O)C=C[C@]4(C)[C@@]3(F)[C@@H](O)C[C@]2(C)[C@@]1(O)C(=O)CO [dexamethasone] |  |  |  |  |  |  |  |  |  |  |  |  |  | did not demonstrate any effect on viral replication | did not demonstrate any effect on viral replication | 
CCN(CCO)CCCC(C)Nc1ccnc2cc(Cl)ccc12 (stereo not shown) [hydroxychloroquine] |  |  |  |  |  |  |  |  |  |  |  |  |  |  | did show some effects | toxic effects on cells
C=C1CC[C@H](O)C/C1=C/C=C1\CCC[C@]2(C)[C@@H]([C@H](C)/C=C/[C@H](C)C(C)C)CC[C@@H]12 [vitamin D2] |  |  |  |  |  |  |  |  |  |  |  |  |  | also reduced virus replication but did not meet all criteria | also reduced virus replication but did not meet all criteria | 
